# Assay results published in patent US20260034192A1 (University of Saskatchewan, priority 2022, published 2026).
# Where “and” joins values, the source holds several entries; their conditions need not be identical. Identical values can stand only once. Marks after values point to notes of the source that are not given here. Square brackets hold non-standard residues; d marks the D form. Peptide text beside a SMILES is read from it. dPhe(4-Cl) = N[C@H](Cc1ccc(Cl)cc1)C(=O)O; d2Nal = N[C@H](Cc1ccc2ccccc2c1)C(=O)O; dCit = NC(=O)NCCC[C@@H](N)C(=O)O; d3Pal = N[C@H](Cc1cccnc1)C(=O)O
# Assays:
# [1] = system: Brahman x Angus cross beef post-partum cows; experiment: Field trial of fixed-time AI after cetrorelix versus estradiol protocol (Example 8); assay type: in vivo, cattle
# Description: This field trial was conducted by a faculty member of the Federal University of Santa Maria at a client beef farm in Brazil in December 2022. A total of 216 Brahman x Angus cross beef post-partum cows were used for this experiment. Cows were divided into two treatment groups ([…]) and were either given cetrorelix 3 mg i/m or estradiol benzoate on a random day of the cycle (defined as Day 0). An intravaginal progesterone device (CIDR) was placed in all cows on Day 0. The CIDR devices were removed on Day 8 and animals were given prostaglandin F2a analog and equine choriogonadotropin (eCG). Fixed-time artificial insemination was done 54 hrs after CIDR removal and animals were given GnRH at this time. Pregnancy diagnosis was performed on Day 30 after artificial insemination. Transrectal ultrasound examinations were performed on Day 0, Day 8, Day 10 and Day 40.
# [2] = system: Hereford crossbred heifers; experiment: Cetrorelix pre-treatment before kisspeptin-10 in low-progesterone heifer model (Example 1); assay type: in vivo, cattle
# Description: Methods: The human Kisspeptin-10 (hKP-10) peptide (YNWNSFGLRF-NH2; SEQ ID NO: 1) was custom synthetized at >95% of purity (MW: 1318.44 g/mol) by GenScript USA Inc, Piscataway, NJ, USA. The sequence is based on the predicted C-terminal region (112-121-NH2) of human metastin (Gen Bank accession #AY117143) and has been previously used in cattle. The peptide was previously tested for solubility and was dissolved in ultrapure water at 10 mg/mL.
# The heifers were maintained in outdoor pens at the University of Saskatchewan Goodale Research Farm (52° north and 106° west). Heifers were fed barley silage and had hay and water ad libitum. A mineral salt block was available to heifers throughout the study period. All procedures were performed in accordance with Canadian Council on Animal Care and were approved by the University of Saskatchewan Protocol Review Committee.
# Immediately after ultrasound examination, heifers were given PGF2a twice at an interval of 12-hours. The low-progesterone bovine model described previously (Leonardi et al. 2019) was used to test the hypothesis. Briefly, the ovaries were examined daily by ultrasonography to detect ovulation. Three days after ovulation, follicles ≥5 mm in diameter in both ovaries were ablated by transvaginal ultrasound-guided follicle aspiration, inducing the emergence of new follicular wave 1.5 days after the procedure (Bergfelt et al. 1994). After follicular ablation, a progesterone device was placed in the vagina (CIDR; Zoetis). The day of wave emergence (Day 0) was defined as the day when the follicle of wave was first recorded (4 to 5 mm in diameter) with concurrent increase in diameter. Heifers were given PGF2α im on Days 3.5 and 4 (i.e., 8 and 8.5 days after ovulation) to cause luteolysis, however, the CIDR devices were left in place until Day 12 to maintain a low-progesterone milieu sufficient to prevent spontaneous ovulation. On Day 6, an indwelling jugular catheter was placed as described (Bergfelt et al. 1997) and heifers were assigned randomly to three groups (n=5 per group): 1) 3 iv doses of 15 mg human kisspeptin-10 at 1 h intervals (Kp10 group), 2) pretreatment with single im dose of Cetrorelix acetate (20 μg/Kg of body weight, GnRH antagonist—Sigma #C5249 diluted in 5% D-Manitol w/v, Sigma #M4125) followed 3 h later with 3 iv doses of 15 mg human kisspeptin-10 at 1 h intervals (Cetrorelix group), or 3) 3 iv doses of normal saline at 1 h intervals (Control group). Following treatment (on Day 6), ovarian ultrasound examinations were performed daily until the end of the experiment to detect ovulation of the extant dominant follicle (i.e., dominant follicle present at the time of treatment) or of the dominant follicle originating from a subsequent wave. The progesterone device was withdrawn on Day 12 (i.e., thirteen days after insertion) and ultrasound examinations were continued until ovulation was detected.
# Blood samples and hormone assays: Serial blood samples on the day of treatment were collected at 15 minute intervals from −30 to 150 min (0 min=time of first hKP-10 or saline injection) using the indwelling jugular catheter. All blood samples were collected in heparinized tubes (Vacutainer, BD, Franklin Lakes NJ, USA). Immediately after sampling, tubes were centrifuged at 1,500×g for 15 min, and plasma was separated and stored at −20° C.
# The plasma samples from both experiments were analyzed for LH and progesterone concentration at the University of Wisconsin (Madison, WI, USA) in Dr O. J. Ginther's Research Laboratory. Plasma LH concentrations were measured with a validated radioimmunoassay for cattle (Bolt et al. 1990) with modifications as reported Ginther et al. 1999). Briefly, LH concentrations were measured in duplicate using USDA-bLH-B-6 for ^125I-iodination and for preparing reference standards, and USDA-309-684P as the primary antibody (National Hormone and Pituitary Program, Torrance, CA, USA). […]
# [3] = 30 days after fixed-time artificial insemination
# [4] = Day 6 of wave, low progesterone, Kp10 3 x 15 mg iv, Cetrorelix 20 μg/Kg im 3 h before Kp10
# [5] = Kp10 3 x 15 mg iv, Cetrorelix 20 μg/Kg im 3 h before Kp10
smiles,measurement,setting,value
"CC(=O)N[C@H](Cc1ccc2ccccc2c1)C(=O)N[C@H](Cc1ccc(Cl)cc1)C(=O)N[C@H](Cc1cccnc1)C(=O)N[C@@H](CO)C(=O)N[C@@H](Cc1ccc(O)cc1)C(=O)N[C@H](CCCNC(N)=O)C(=O)N[C@@H](CC(C)C)C(=O)N[C@@H](CCCNC(=N)N)C(=O)N1CCC[C@H]1C(=O)N[C@H](C)C(N)=O [Cetrorelix, N-acetyl-3-(2-naphthyl)-D-alanyl-4-chloro-D-phenylalanyl-3-(3-pyridyl)-D-alanyl-L-seryl-L-tyrosyl-D-citrullyl-L-leucyl-L-arginyl-L-prolyl-D-alaninamide] (Ac-[d2Nal][dPhe(4-Cl)][d3Pal]SY[dCit]LRP[dA]-NH2)",Conception rate: Percent,[1]; [3],42.6%
same,Conception rate: Pregnant/AI,[1]; [3],46/108*
same,Conception rate: Percent,"[1]; 30 days after fixed-time artificial insemination, listed as cetrorelix",42.6%
same,Size of the dominant follicle on Day 8 (at PGF),"[1]; cetrorelix 3 mg i/m or estradiol benzoate on Day 0, CIDR removal Day 8, in mm",11.04 ± 0.48
same,Size of the dominant follicle on Day 10 (at AI),"[1]; cetrorelix 3 mg i/m or estradiol benzoate on Day 0, in mm",12.72 ± 0.65
same,Dominant follicle diameter 24 h after treatment,[2]; [4],13.38 ± 0.55 mm
same,Dominant follicle diameter 48 h after treatment,[2]; [4],12.91 ± 0.55 mm
same,Dominant follicle diameter at time of treatment,[2]; [4],13.01 ± 0.68 mm
same,Emergence of a new follicular wave after treatment,"[2]; Day 6 of wave, low progesterone, Kp10 3 x 15 mg iv, Cetrorelix single im 20 μg/Kg 3 h before Kp10",3.40 ± 0.75 days and 3.4 days
same,Emergence of a new follicular wave after treatment,"[2]; Day 6 of wave, low progesterone, Kp10 3 x 15 mg iv, Cetrorelix single im 20 μg/Kg 3 h before Kp10, listed as Cetrorelix acetate",about 3.40±0.75 days
same,Day of ovulation of new dominant follicles after CIDR removal (Day 12),[2]; Day of follicular wave,15
same,Heifers in which a new wave emergence occurred,[2]; [5],5 of 5
same,Number of ovulations after CIDR removal on Day 12: Extant dominant follicle,[2]; [5],0/5
same,Number of ovulations after CIDR removal on Day 12: New dominant follicle,[2]; [5],5/5
same,Plasma LH concentration / kisspeptin-induced LH surge,[2]; [5],suppressed the kisspeptin-induced LH surge
same,Time by which the dominant follicle entered the regression phase,[2]; after kisspeptin and GnRH antagonist treatment,≤ 72 h
